Assay results: article PMC4819222, “CD300c is uniquely expressed on CD56^bright Natural Killer Cells and differs from CD300a upon ligand recognition” (Scientific Reports, 2016)

What was measured:
[1] = molecular target: T1, CD300c-Ig (Homo sapiens, UniProt Q08708); assay: ELISA on plates coated with pure lipid; SPR on L1-chip liposomes (Biacore T200); assay type: binding; conditions: immobilised lipid; Fc fusion protein as analyte
T1 construct: extracellular domain fused to Fc fragment of human IgG2 (Fc as tag)
T1 sequence (Q08708 21-183 limits assumed): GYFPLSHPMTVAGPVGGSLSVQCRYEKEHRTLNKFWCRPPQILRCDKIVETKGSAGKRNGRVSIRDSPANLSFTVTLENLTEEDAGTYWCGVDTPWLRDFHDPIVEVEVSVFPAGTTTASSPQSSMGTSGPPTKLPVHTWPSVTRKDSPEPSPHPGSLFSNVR

[2] = molecular target: T2, CD300a-Ig (Homo sapiens, UniProt Q9UGN4); assay: as above; assay type: binding; conditions: immobilised lipid; Fc fusion protein as analyte
T2 construct: Ig (Fc) fusion protein, Fc as tag
T2 sequence (Q9UGN4 18-180 limits assumed): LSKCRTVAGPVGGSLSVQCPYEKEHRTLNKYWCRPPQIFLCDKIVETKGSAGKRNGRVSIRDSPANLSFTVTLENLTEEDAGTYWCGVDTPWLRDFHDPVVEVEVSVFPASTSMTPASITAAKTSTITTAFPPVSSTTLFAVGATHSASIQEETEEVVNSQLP

CCCCCCCC/C=C\CCCCCCCC(=O)O[C@H](COC(=O)CCCCCCCCCCCCCCC)COP(=O)(O)OCCN [PE, 1-palmitoyl-2-oleoyl (PO) phosphatidylethanolamine (POPE)]
ELISA on plates coated with pure lipid; SPR on L1-chip liposomes (Biacore T200) [1]: CD300c-Ig binds to both PS and PE at the same level
ELISA on plates coated with pure lipid; SPR on L1-chip liposomes (Biacore T200) [2]: CD300a-Ig predominantly binds to PE
